Source: ChEMBL document CHEMBL1201862, “PubChem BioAssay data set” (2004)
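Compound exposure: 48 hours, 5 concentrations, 96-well plates. GI50: concentration for 50% inhibition of growth.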 The source made the active and inactive calls. No stated cut-off is given here; in the data, active = GI50 up to about 1.1 µM and inactive = higher. Where a SMILES comes first, the peptide text is derived from it. [ ]: non-standard residue; d: D form. The star is where a group is joined. Phe(4-NO2) = N[CH](Cc1ccc([N+](=O)[O-])cc1)C(=O)O; Cbz = O=C(OCc1ccccc1)*

Legend:
Assay in all cases: NCI anticancer screen, dose series, 48 h
[1] = tested on: COLO 205
[2] = tested on: MDA-MB-435
[3] = tested on: MDA-N
[4] = tested on: CAKI-1
[5] = tested on: SW-620
[6] = tested on: ACHN
[7] = tested on: PC-3
[8] = tested on: M14
[9] = tested on: NCI-H226
[10] = tested on: UACC-62
[11] = tested on: KM12
[12] = tested on: TK-10
[13] = tested on: A549
[14] = tested on: IGROV-1
[15] = tested on: Hs-578T
[16] = tested on: UO-31
[17] = tested on: HCT-116
[18] = tested on: SNB-19
[19] = tested on: SK-OV-3
[20] = tested on: Malme-3M

Measured: GI50

CC(N/N=C(\S)N1CCN(c2ccccn2)CC1)c1cccc[n+]1[O-] (stereo not given)
inactive: [1] 10.5 µM | [2] 25.3 µM | [3] 18.4 µM | [4] 14.2 µM | [5] 4.85 µM | [6] 6.01 µM | [7] 15.3 µM | [8] 28.3 µM | [9] 34.9 µM | [10] 2.95 µM | [11] 52.4 µM | [12] 32 µM | [13] 8.65 µM | [14] 43.8 µM | [15] 85.7 µM | [16] 8.13 µM | [17] 2.82 µM | [18] 32.9 µM

CCC(=O)N/S(=N/S(=O)(=O)c1ccccc1)C(Cl)(Cl)Cl (stereo not given)
inactive: [1] > 100 µM | [2] > 100 µM | [3] > 100 µM | [19] > 100 µM | [5] > 100 µM | [6] > 100 µM | [7] > 100 µM | [8] > 100 µM | [20] > 100 µM | [9] > 100 µM | [10] > 100 µM | [11] > 100 µM | [12] > 100 µM | [13] > 100 µM | [14] > 100 µM | [15] > 100 µM | [16] > 100 µM | [17] > 100 µM | [18] > 100 µM

COc1ccc(C(=O)/C=C/c2ccc(OCCCOc3ccc(/C=C/C(=O)c4ccc(OC)c(OC)c4)cc3)cc2)cc1OC
inactive: [1] > 100 µM | [2] > 100 µM | [3] > 100 µM | [4] > 100 µM | [19] > 100 µM | [5] > 100 µM | [6] > 100 µM | [7] > 100 µM | [8] > 100 µM | [9] > 100 µM | [10] > 100 µM | [11] > 100 µM | [12] > 100 µM | [13] > 100 µM | [14] > 100 µM | [15] > 100 µM | [16] > 100 µM | [17] > 100 µM | [18] > 100 µM

CCOC(=O)C1=C(C)N(c2ccc(Cl)cc2)C2(O)C=CC(=O)C3C(=O)N(c4ccccc4)C(=O)C132 (stereo not given)
inactive: [1] 1.67 µM | [2] 2.23 µM | [3] 2.35 µM | [4] 1.87 µM | [19] 2.4 µM | [5] 1.54 µM | [6] 1.59 µM | [7] 1.5 µM | [8] 1.66 µM | [20] 1.66 µM | [10] 1.59 µM | [11] 1.69 µM | [12] 1.8 µM | [13] 2.83 µM | [14] 1.54 µM | [15] 2.39 µM | [16] 1.6 µM | [17] 1.44 µM | [18] 2.18 µM

O=c1cc(-c2ccccc2)c2ccc(O)c(CN(CCCl)CCCl)c2o1
inactive: [1] 12.4 µM | [2] 19.9 µM | [3] 17.6 µM | [4] 15.5 µM | [5] 18.8 µM | [6] 20.4 µM | [7] 17.8 µM | [8] 20.1 µM | [20] 21 µM | [9] 17.9 µM | [10] 16.9 µM | [11] 17.9 µM | [13] 16.1 µM | [14] 15.5 µM | [15] 24.9 µM | [16] 14.4 µM | [17] 19.1 µM | [18] 18.5 µM

CC(C)(C)NCC(O)c1ccc(O)c(CO)n1 (stereo not given)
inactive: [1] > 100 µM | [2] > 100 µM | [3] > 100 µM | [4] > 100 µM | [19] > 100 µM | [5] > 100 µM | [6] > 100 µM | [7] > 100 µM | [8] > 100 µM | [9] > 100 µM | [10] > 100 µM | [11] > 100 µM | [12] > 100 µM | [13] > 100 µM | [14] > 100 µM | [15] > 100 µM | [16] > 100 µM | [17] > 100 µM | [18] > 100 µM

CCOC(=O)c1[nH]c(-c2[nH]c(-c3[nH]c(-c4[nH]c(C(=O)OCC)c(C)c4C(=O)OCC)c(C(=O)OCC)c3C)c(C)c2C(=O)OCC)c(C(=O)OCC)c1C
inactive: [1] > 100 µM | [2] > 100 µM | [3] > 100 µM | [4] > 100 µM | [19] > 100 µM | [5] > 100 µM | [6] > 100 µM | [7] > 100 µM | [8] > 100 µM | [20] > 100 µM | [9] > 100 µM | [10] > 100 µM | [11] > 100 µM | [12] > 100 µM | [13] > 100 µM | [14] > 100 µM | [15] > 100 µM | [17] > 100 µM | [18] > 100 µM

COc1ccc(-c2c3c(n(C4OC(CO)C(O)C(O)C4O)c(=S)c2C#N)CCC3)cc1 (stereo not given)
inactive: [1] 68.9 µM | [2] 33.3 µM | [3] 53.8 µM | [4] > 100 µM | [19] 91.4 µM | [5] 71.9 µM | [6] 38.5 µM | [7] 41.3 µM | [8] 36.2 µM | [20] 57.8 µM | [10] 42 µM | [11] 59.3 µM | [12] > 100 µM | [13] 68.9 µM | [14] 48.6 µM | [15] 38.7 µM | [16] > 100 µM | [17] 49.2 µM | [18] 37.7 µM

O=c1n(N=[S+]([O-])(c2ccccc2)c2ccccc2)c(=O)n2n1C1C=CC2CC1
inactive: [1] > 100 µM | [2] > 100 µM | [3] > 100 µM | [4] > 100 µM | [19] > 100 µM | [5] > 100 µM | [6] > 100 µM | [7] > 100 µM | [8] > 100 µM | [9] > 100 µM | [10] > 100 µM | [11] > 100 µM | [12] > 100 µM | [13] > 100 µM | [14] > 100 µM | [15] > 100 µM | [16] > 100 µM | [17] > 100 µM | [18] > 100 µM

N/C(=N\O)N/N=C/c1ccc2c(c1)OCO2
inactive: [1] 4.74 µM | [2] 31.4 µM | [3] 36.5 µM | [4] 30.3 µM | [19] 47.4 µM | [5] 63.4 µM | [6] 20 µM | [7] 26.2 µM | [8] 13.5 µM | [20] 17.5 µM | [9] 10.8 µM | [10] 13.5 µM | [11] 7.55 µM | [12] 55 µM | [13] 14.7 µM | [14] 25 µM | [15] > 100 µM | [17] 21.1 µM | [18] 62.7 µM

COc1ccc(OC)c2c(=O)cc(-c3ccccc3)[nH]c12
inactive: [1] > 100 µM | [2] > 100 µM | [3] > 100 µM | [19] > 100 µM | [5] > 100 µM | [6] > 100 µM | [7] > 100 µM | [8] > 100 µM | [20] > 100 µM | [9] > 100 µM | [10] > 100 µM | [11] > 100 µM | [12] > 100 µM | [13] > 100 µM | [14] > 100 µM | [15] > 100 µM | [16] > 100 µM | [17] > 100 µM | [18] > 100 µM

CNC(=O)OCc1nc(N=[N+]=[N-])n(C)c1COC(=O)NC
inactive: [1] 32.8 µM | [2] 37.2 µM | [3] 60.4 µM | [4] 20.7 µM | [5] 66.1 µM | [6] 33.4 µM | [7] 96.2 µM | [20] 55.7 µM | [9] > 100 µM | [11] 69.8 µM | [12] 32.2 µM | [13] 61.7 µM | [14] > 100 µM | [15] > 100 µM | [16] > 10 µM | [17] 46.2 µM

O=CN1CCN(C(=O)c2ccc(Cl)cc2Cl)C1=S
inactive: [1] > 100 µM | [2] 43.9 µM | [3] 64.6 µM | [4] 41.1 µM | [19] > 100 µM | [5] 77.8 µM | [6] > 100 µM | [7] > 100 µM | [8] > 100 µM | [20] > 100 µM | [9] > 100 µM | [10] > 100 µM | [11] 43.2 µM | [12] 78.7 µM | [13] 67.3 µM | [14] > 100 µM | [15] 32.4 µM | [17] > 100 µM | [18] > 100 µM

CCOC(=O)CCC(NC(=O)OCc1ccccc1)C(=O)NC(CCC(=O)OCC)C(=O)NC(Cc1ccc([N+](=O)[O-])cc1)C(=O)NC(CCC(=O)OCC)C(=O)NC(CCC(=O)OCC)C(=O)OCC (stereo not given) (Cbz-E(OEt)E(OEt)[Phe(4-NO2)]E(OEt)E(OEt)-OEt; configuration not given here)
inactive: [1] > 100 µM | [2] > 100 µM | [3] > 100 µM | [4] > 100 µM | [19] > 100 µM | [5] > 100 µM | [6] > 100 µM | [7] > 100 µM | [20] > 100 µM | [10] > 100 µM | [11] > 100 µM | [12] > 100 µM | [13] > 100 µM | [14] > 100 µM | [15] > 100 µM | [16] > 100 µM | [17] > 100 µM | [18] > 100 µM
